Data on 25 compounds can be found in patent US11059818B2, “Triazolopyridine inhibitors of myeloperoxidase” (BRISTOL-MYERS SQUIBB COMPANY, priority 2016, dated 2021).

For assay [1], the target named is T1, myeloperoxidase (Homo sapiens (Human), UniProt P05164). In words: MPO Peroxidation Assay (Amplex Red Assay). The format is biochemical. To be noted: potency range class. The method, then:
MPO Peroxidation Assay (Amplex Red Assay)
MPO peroxidation activity was measured in 100 mM KPi (pH 7.4) by utilizing the non-fluorescent reagent Amplex Red (Invitrogen Cat. #A12222) which can be oxidized to the highly fluorescent resorufin. Amplex Red is oxidized by the peroxidase action of MPO to resorufin. Reactions were carried out in 50 μL total volume by adding a 25 μL mixture of 200 pM myeloperoxidase and 40 nM H2O2(Sigma #349887) to 100 nL inhibitor in 100% DMSO in a 384 well Perkin Elmer Optiplate. Enzyme and compound were preincubated for ten minutes at rt.
After the ten minute preincubation, 25 μL of an Amplex Red mixture containing 200 μM Amplex Red and 10 mM H2O2 was added to the plate. Kinetic determinations were carried out immediately on a Perkin Elmer Envision (15 minute kinetic read, Ex: 535 nm, Em: 590 nm).
IC50 values were calculated by determining the slope of the linear portion of the kinetic trace (180-540 secs), and using that calculated slope to determine % inhibition occurring at each concentration of inhibitor using the following equation:
(§1) [formula] where A=minimal Y value (activity level of inhibited sample), B=maximal Y value (activity level of uninhibited sample), C=Log IC50, D=Hill Slope, x=concentration of inhibitor. MPO Chlorination Assay (APF Assay)

Assay [2] addresses T1, myeloperoxidase. Briefly: MPO Chlorination Assay (APF Assay). It is filed as biochemical. The settings on record: potency range class. The procedure: as §1
MPO chlorination activity was measured in 100 mM KPi (pH 7.4) by utilizing the non-fluorescent reagent Aminophenyl fluorescein (APF, Invitrogen Cat. #A36003). APF is cleaved by (—OCl) to yield the fluorescent compound fluorescein. Reactions were carried out in 50 μL total volume by adding a 25 μL mixture of 200 pM myeloperoxidase and 120 mM NaCl to 100 nL inhibitor in 100% DMSO in a 384 well, non-binding surface clear bottom plate (Corning #3655). Enzyme, inhibitor, and chloride were preincubated for ten minutes at rt.
After the ten minute preincubation, 25 μL of an APF mixture containing […], 120 mM NaCl and 10 μM H2O2 was added to the plate using the internal dispensing system of a Hammatsu FDSS 6000. Kinetic determinations were carried out immediately on the FDSS 6000 (3 minute kinetic read, 1 read every second, ex: 485 nm, em: 535 nm). IC50 values for inhibitors were calculated by taking the slope of the linear portion of the kinetic measurement (20 seconds to ˜80-120 secs). […]
[formula] where A=minimal Y value (activity level of inhibited sample), B=maximal Y value (activity level of uninhibited sample), C=Log IC50, D=Hill Slope, x=concentration of inhibitor.

The structures appear in SMILES notation.

T1 sequence (P05164 49-745): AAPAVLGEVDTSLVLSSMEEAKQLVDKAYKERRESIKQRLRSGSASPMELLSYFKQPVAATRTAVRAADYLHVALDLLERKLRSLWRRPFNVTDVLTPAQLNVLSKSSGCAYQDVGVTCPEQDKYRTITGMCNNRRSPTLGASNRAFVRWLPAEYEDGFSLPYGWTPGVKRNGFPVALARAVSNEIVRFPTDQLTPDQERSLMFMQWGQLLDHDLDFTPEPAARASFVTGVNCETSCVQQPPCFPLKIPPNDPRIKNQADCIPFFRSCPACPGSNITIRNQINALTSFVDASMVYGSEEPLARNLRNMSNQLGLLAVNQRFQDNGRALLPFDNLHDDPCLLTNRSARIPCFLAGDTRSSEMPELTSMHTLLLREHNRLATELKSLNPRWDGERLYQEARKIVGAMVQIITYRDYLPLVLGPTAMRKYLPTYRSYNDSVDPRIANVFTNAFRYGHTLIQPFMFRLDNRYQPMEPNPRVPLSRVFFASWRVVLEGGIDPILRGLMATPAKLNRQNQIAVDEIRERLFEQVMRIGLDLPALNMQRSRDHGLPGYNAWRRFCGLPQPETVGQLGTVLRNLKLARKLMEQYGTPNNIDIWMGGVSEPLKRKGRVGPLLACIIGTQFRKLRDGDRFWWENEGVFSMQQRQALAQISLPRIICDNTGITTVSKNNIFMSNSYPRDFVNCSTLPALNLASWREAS

`Nc1cc(C(CCN[C@H]2C[C@H](Cc3ccccc3)[C@@H](O)C2)c2cnn(CCc3cccc(O)c3)c2)c2nn[nH]c2n1` (some centres unmarked) [Example 54]: the IC50 was in the range of 1000 to 10000 nM in assay [1] and 101 to 999 nM in assay [2].

`CC(c1cnn(Cc2ccc3c(c2)CCNC3)c1)c1cc(N)nc2[nH]nnc12` (centres unmarked) [Example 3, 7-{1-[1-(1,2,3,4-tetrahydroisoquinolin-6-ylmethyl)-1H-pyrazol-4-yl]ethyl}-3H-[1,2,3]triazolo[4,5-b]pyridin-5-amine]: the IC50 in assay [1] and in assay [2] was 101 to 999 nM each time.

As to `CCCC(c1cnn(Cc2ccc3c(c2)CCNC3)c1)c1cc(N)nc2[nH]nnc12` (centres unmarked) [Example 2, 7-{1-[1-(1,2,3,4-tetrahydroisoquinolin-6-ylmethyl)-1H-pyrazol-4-yl]butyl}-3H-[1,2,3]triazolo[4,5-b]pyridin-5-amine], the IC50 in assay [1] and in assay [2] was 101 to 999 nM throughout.

With `Nc1cc(C(CCNC23CCC(c4ccccc4)(CC2)[C@@H](O)C3)c2cnn(Cc3cccc(O)c3)c2)c2nn[nH]c2n1` (some centres unmarked) [Example 52], the concentration for half-maximal inhibition (IC50) in assay [1] and in assay [2] was 1 to 100 nM each time.

For `Nc1cc(C(CCN[C@@H]2C[C@@H](Cc3ccccc3)[C@H](O)C2)c2cnn(Cc3cccc(O)c3)c2)c2nn[nH]c2n1` (stereo partly drawn) [Example 42, 3-{[4-(1-{5-Amino-3H-[1,2,3]triazolo[4,5-b]pyridin-7-yl}-3-{[(1R,3R,4R)-3-benzyl-4-hydroxycyclopentyl]amino}propyl)-1H-pyrazol-1-yl]methyl}phenol], the IC50 in assay [1] and in assay [2] was 1 to 100 nM in each case.

On to `Nc1cc(C(CCNCc2cccc(CO)c2)c2cnn(Cc3cccc(O)c3)c2)c2nn[nH]c2n1` (centres unmarked) [Example 48], for which the 50% inhibitory concentration (IC50) fell in the range of 1000 to 10000 nM in assay [1] and 101 to 999 nM in assay [2].

Regarding `Nc1cc(C(CCC(c2ccccc2)c2ccccc2)c2cnn(Cc3ccc4c(c3)CCNC4)c2)c2nn[nH]c2n1` (centres unmarked) [Example 5, 7-{4,4-diphenyl-1-[1-(1,2,3,4-tetrahydroisoquinolin-6-ylmethyl)-1H-pyrazol-4-yl]butyl}-3H-[1,2,3]triazolo[4,5-b]pyridin-5-amine], the IC50 lay in the range of 1000 to 10000 nM in assay [1] and 1 to 100 nM in assay [2].

Regarding `Nc1cc(C(CCOc2ccccc2)c2cnn(Cc3ccc4c(c3)CCNC4)c2)c2nn[nH]c2n1` (centres unmarked) [Example 11, 7-{3-Phenoxy-1-[1-(1,2,3,4-tetrahydroisoquinolin-6-ylmethyl)-1H-pyrazol-4-yl]propyl}-3H-[1,2,3]triazolo[4,5-b]pyridin-5-amine], the IC50 in assay [1] and in assay [2] was 101 to 999 nM throughout.

For `Nc1cc(C(CCNC23CCC(c4ccccc4)(CC2)CC3)c2cnn(CCc3cccc(O)c3)c2)c2nn[nH]c2n1` (centres unmarked) [Example 50], the IC50 in assay [1] is 101 to 999 nM; in assay [2] it was 1 to 100 nM.

As to `Nc1cc(C(CCN[C@H]2CC[C@H](c3ccccc3)CC2)c2ccc(F)nc2)c2nn[nH]c2n1` (some centres unmarked) [Example 45], the half-maximal inhibitory concentration (IC50) in assay [1] and in assay [2] was 101 to 999 nM throughout.

Take `Nc1cc([C@H](CCN[C@H]2CC[C@H](c3ccccc3)CC2)c2cnn(Cc3cccc(OC(F)F)c3)c2)c2nn[nH]c2n1` [Example 33A, 7(S)-[1-(1-{[3-(Difluoromethoxy)phenyl]methyl}-1H-pyrazol-4-yl)-3-{[trans-4-phenylcyclohexyl]amino}propyl]-3H-[1,2,3]triazolo[4,5-b]pyridin-5-amine]: the IC50 lay within 1000 to 10000 nM in assay [1] and 101 to 999 nM in assay [2].

With `Nc1cc(C(CCN[C@H]2CC[C@H](c3ccccc3)CC2)c2cnn(Cc3cccc(C(F)(F)F)c3)c2)c2nn[nH]c2n1` (stereo partly drawn) [Example 31, 7-(3-{[trans-4-Phenylcyclohexyl]amino}-1-(1-{[3-(trifluoromethyl)phenyl]methyl}-1H-pyrazol-4-yl)propyl)-3H-[1,2,3]triazolo[4,5-b]pyridin-5-amine], the IC50 was in the range of 101 to 999 nM in assay [1] and 1 to 100 nM in assay [2].

Turning to `Nc1cc(C(CCN[C@H]2CC[C@H](c3ccccc3)CC2)c2cnn(C3CCC(F)(F)C3)c2)c2nn[nH]c2n1` (relative stereo) [Example 27, 7-{1-[1-(3,3-Difluorocyclopentyl)-1H-pyrazol-4-yl]-3-{[trans-4-phenylcyclohexyl]amino}propyl}-3H-[1,2,3]triazolo[4,5-b]pyridin-5-amine], the 50% inhibitory concentration (IC50) in assay [1] lay within 101 to 999 nM; in assay [2], 1 to 100 nM.

Turning to `Nc1cc(C(CCC2CCOCC2)c2cnn(Cc3ccc4c(c3)CCNC4)c2)c2nn[nH]c2n1` (centres unmarked) [Example 10, 7-[3-(Oxan-4-yl)-1-[1-(1,2,3,4-tetrahydroisoquinolin-6-ylmethyl)-1H-pyrazol-4-yl]propyl]-3H-[1,2,3]triazolo[4,5-b]pyridin-5-amine], the IC50 was 101 to 999 nM in assay [1] and 1000 to 10000 nM in assay [2].

`Nc1cc(C(CCN[C@H]2CC[C@H](c3ccccc3)CC2)c2cnn(C3CC(F)C3(F)F)c2)c2nn[nH]c2n1` (stereo partly drawn) [Example 29, 7-(3-{[trans-4-phenylcyclohexyl]amino}-1-[1-(2,2,3-trifluorocyclobutyl)-1H-pyrazol-4-yl]propyl)-3H-[1,2,3]triazolo[4,5-b]pyridin-5-amine]: the IC50 in assay [1] fell in the range of 101 to 999 nM; in assay [2] it was 1 to 100 nM.

For `Nc1cc(C(CCN[C@@H]2CC[C@@H](Cc3ccccc3)C2)c2cnn(CCc3cccc(O)c3)c2)c2nn[nH]c2n1` (some centres unmarked) [Example 53], the IC50 was 1000 to 10000 nM in assay [1] and 101 to 999 nM in assay [2].

`Nc1cc(C(CCN2C[C@H](Cc3ccccc3)[C@@H](O)C2)c2cnn(Cc3cccc(O)c3)c2)c2nn[nH]c2n1` (some centres unmarked) [Example 43]: the IC50 in assay [1] lay within 1000 to 10000 nM; in assay [2], 1 to 100 nM.

Regarding `Nc1cc(C(CCN[C@H]2CC[C@H](c3ccccc3)CC2)c2cnn(Cc3cccc(OC(F)F)c3)c2)c2nn[nH]c2n1` (stereo partly drawn) [Example 25, 7-[1-(1-{[3-(Difluoromethoxy)phenyl]methyl}-1H-pyrazol-4-yl)-3-{[trans-4-phenylcyclohexyl]amino}propyl]-3H-[1,2,3]triazolo[4,5-b]pyridin-5-amine], the IC50 in assay [1] lay in the range of 101 to 999 nM; in assay [2], 1 to 100 nM.

For `Nc1cc(C(CCN[C@H]2CC[C@H](c3ccccc3)CC2)c2cc[nH]n2)c2nn[nH]c2n1` (stereo partly drawn) [Example 36, 7-[1-(1H-Pyrazol-3-yl)-3-{[trans-4-phenylcyclohexyl]amino}propyl]-3H-[1,2,3]triazolo[4,5-b]pyridin-5-amine], the IC50 in assay [1] is 1000 to 10000 nM; in assay [2], 101 to 999 nM.

For `Nc1cc(C(CCN[C@H]2CC[C@H](c3ccccc3)CC2)c2cnn(Cc3cccc4ccccc34)c2)c2nn[nH]c2n1` (stereo partly drawn) [Example 24, 7-{1-[1-(Naphthalen-1-ylmethyl)-1H-pyrazol-4-yl]-3-{[trans-4-phenylcyclohexyl]amino}propyl}-3H-[1,2,3]triazolo[4,5-b]pyridin-5-amine], the IC50 is 101 to 999 nM in assay [1] and 1 to 100 nM in assay [2].

As for `Nc1cc(C(CCN[C@H]2CC[C@H](c3ccccc3)CC2)c2cccnc2)c2nn[nH]c2n1` (stereo partly drawn) [Example 34, 7-[1-(Pyridin-3-yl)-3-{[trans-4-phenylcyclohexyl]amino}propyl]-3H-[1,2,3]triazolo[4,5-b]pyridin-5-amine], the IC50 in assay [1] fell in the range of 101 to 999 nM; in assay [2], 1 to 100 nM.

For `Nc1cc([C@@H](CCN[C@H]2CC[C@H](c3ccccc3)CC2)c2cnn(Cc3cccc(OC(F)F)c3)c2)c2nn[nH]c2n1` [Example 33B, 7(R)-[1-(1-{[3-(Difluoromethoxy)phenyl]methyl}-1H-pyrazol-4-yl)-3-{[trans-4-phenylcyclohexyl]amino}propyl]-3H-[1,2,3]triazolo[4,5-b]pyridin-5-amine], the IC50 in assay [1] and in assay [2] was 1 to 100 nM throughout.

With `Nc1cc(C(CCN[C@H]2CC[C@H](c3ccccc3)CC2)c2cn[nH]c2)c2nn[nH]c2n1` (stereo partly drawn) [Example 22, 7-[1-(1H-Pyrazol-4-yl)-3-{[trans-4-phenylcyclohexyl]amino}propyl]-3H-[1,2,3]triazolo[4,5-b]pyridin-5-amine], the IC50 is 1000 to 10000 nM in assay [1] and 101 to 999 nM in assay [2].

For the compound `Nc1cc(C(CCN[C@H]2CC[C@H](c3ccccc3)CC2)c2cnn(C3CCC3(F)F)c2)c2nn[nH]c2n1` (stereo partly drawn) [Example 28, 7-{1-[1-(2,2-Difluorocyclobutyl)-1H-pyrazol-4-yl]-3-{[trans-4-phenylcyclohexyl]amino}propyl}-3H-[1,2,3]triazolo[4,5-b]pyridin-5-amine], the results for the IC50 in assay [1] and in assay [2] were 101 to 999 nM and 1 to 100 nM, respectively.

On to `Nc1cc(C(CCN[C@H]2CC[C@H](c3ccccc3)CC2)c2cncc(F)c2)c2nn[nH]c2n1` (some centres unmarked) [Example 44], for which the IC50 in assay [1] lay within 1000 to 10000 nM; in assay [2], 101 to 999 nM.

As a reminder, the IC50 is the concentration needed to halve the response being measured. Higher therefore signals weaker potency in that assay.
